For this test, the system named is lipid oxidation in 1-stearoyl-2-linoleoyl-sn-glycero-3-phosphocholine large unilamellar vesicles (LUVs). Put plainly: Fluorescence assay for antioxidant activity (DPH-PA probe, Fe2+-induced lipid peroxidation in large unilamellar vesicles). It is filed as biochemical. The following applies: pH 7.0; for % of inhibition (percent inhibition based upon Fe+2 oxidation): 21 min. An excerpt: The fluorescent assay is described first.
Fluorescence assay for antioxidant activity (general): The need to screen large numbers of compounds or extracts for antioxidant activity requires that a model system (or systems) be employed which reasonably well represents the structural and functional characteristics of the substrate in the food product. The test must also be sensitive, rapid, and inexpensive. […] Large unilamellar vesicles consisting of 1-stearoyl-2-linoleoly-sn-glycero-3-phosphocholine are prepared, which closely resemble the properties of biological membranes, one of the primary sites of peroxidation. A fluorescent probe, 1,6-diphenylhexatriene propionic acid, is incorporated into the membranes such that the polar head group anchors the probe near the aqueous interface, while the hydrophobic portion lies parallel to the fatty acid chains. This probe reacts with the free radicals generated during peroxidation, resulting in a decrease in fluorescence intensity with time. A peroxidation initiator (such as ferrous metal ions or the free radical generator AAPH (Azobis-[2-amidinopropane hydrochloride]) is used to start the reaction, and the kinetics of fluorescence decrease are determined in the presence or absence of the antioxidant to be tested. An assay for a compound at a given concentration presently takes only twenty-one minutes, consumes only a few micrograms of lipid, and can be readily conducted with a simple fluorometer.
Briefly, the lipid is dissolved in chloroform, and is dried to a thin film using a rotary evaporator. The dried film is resuspended in an aqueous buffer, and is repeatedly extruded through a polycarbonate filter of 100 nm pore size using a Liposofast piposome extruder (Avestin, Inc., Ottawa, Canada). […] The fluorescent probe, diphenylhexatriene-propionic acid (DPH-PA), is incorporated into the vesicles during preparation at a mole ratio of 1:350 (probe:lipid). For the fluorescence experiments, LUVs containing DPH-PA is suspended at a final concentration of 100 μM in 100 mM NaCl, 50 mM tris-HEPES buffer at pH 7.0. The fluorescent probe is excited at 384 nm and emission is monitored at 423 nm. […] AAPH; the progress is monitored by the decrease of the fluorescence intensity of DPH-PA resulting from reaction with free radicals generated over twenty-one minutes. A plot of the decrease of fluorescence intensity as a function of time will be used to determine the kinetics of lipid oxidation.
^1 --Fuorescent intensity at 21 minutes.
^2 --Percent Inhibition based upon Fe^+2 oxidation.

SMILES strings stand for the structures.

`C[C@@H]1O[C@@H](OC[C@H]2O[C@@H](Oc3cc4c(O)cc(O)cc4[o+]c3-c3ccc(O)c(O)c3)[C@H](O[C@@H]3O[C@H](CO)[C@@H](O)[C@H](O)[C@H]3O)[C@@H](O)[C@@H]2O)[C@H](O)[C@H](O)[C@H]1O` [Anthocyanin 1, Cyanidin-3-(2"-O-β-D-glucopyranosyl-6"-O-α-L-rhamnosyl-β-D-glucopyranoside)]: under “2 μM”, the “% of inhibition (percent inhibition based upon Fe+2 oxidation)” value is on record as 38.6% and the “Fl. int. at 21 min. (fluorescent intensity at 21 minutes)” value is reported as 0.48.
For `C[C@@H]1O[C@@H](OC[C@H]2O[C@@H](Oc3cc4c(O)cc(O)cc4[o+]c3-c3ccc(O)c(O)c3)[C@H](O)[C@@H](O)[C@@H]2O)[C@H](O)[C@H](O)[C@H]1O` [Anthocyanin II, Cyanidin-3-(6"-O-α-L-rhamnopyranosyl-β-D-glucopyranoside)], for the setting “concentration not given”, the “% of inhibition (percent inhibition based upon Fe+2 oxidation)” value is reported as 70.0% and the “Fl. int. at 21 min. (fluorescent intensity at 21 minutes)” value is given as 0.7.
Turning to `COc1ccc(O)c(C(C)(C)C)c1` [BHA], under “2 μM”, the “% of inhibition (percent inhibition based upon Fe+2 oxidation)” value turned out to be 87.1% and the “Fl. int. at 21 min. (fluorescent intensity at 21 minutes)” value is 0.82.
On to `Cc1cc(C(C)(C)C)c(O)c(C(C)(C)C)c1` [BHT], for which, where the note is “2 μM”, the “% of inhibition (percent inhibition based upon Fe+2 oxidation)” value was 94.3% and the “Fl. int. at 21 min. (fluorescent intensity at 21 minutes)” value worked out at 0.87.
For `CCCOC(=O)c1cc(O)c(O)c(O)c1` [Propyl gallate] the same measures were 78.6% and 0.76.
For `CC(C)(C)c1cc(O)ccc1O` [TBHQ], in that order: 90.0% and 0.84.
For `Cc1c(C)c2c(c(C)c1O)CCC(C)(CCCC(C)CCCC(C)CCCC(C)C)O2` (centres unmarked) [a-Tocopherol] the same measures were 0.0% and 0.21.

The record behind these values is patent US5985636A, “Method and compositions for inhibiting oxidation” (priority 1997, dated 1999).
